Results published in US7812121B2 (priority 2006, dated 2010).

Columns and labels:
CD1 mice = assay: Mucosal weight gain in small intestine, 10 days daily s.c. dosing; format: in vivo; conditions: 2.5 mg/kg (13.3 nmole), p<0.0001
Text: Afterwards, the mice were euthanized and the small intestines were removed, flushed with saline, and processed as described below.
Specifically, 4 cm sections were harvested: (1) immediately distal to the pylorus (duodenum), (2) starting 2 cm distal of the ligament of Treitz (jejunum), and (3) immediately proximal to the cecum (ileum). The remaining small intestine from ˜6 cm distal of the ligament of Treitz to 4 cm proximal to the cecum was used to prepare mucosal scrapings. From the proximal and distal ends of the remnant, an equal distance was removed until a 15 cm section remained, the remnant was cut longitudinally, rinsed, and the mucosal layer was removed using the short end of a glass microscope slide. The wet weight of the intact intestinal segments and mucosa was measured.

[1] = SEC-SLS solution molecular weight / self-association; format: physicochemical; conditions: PBS (pH 7.5), 1 mg/ml
Protocol: Solution molecular weight of the peptides was measured by SEC-SLS. Briefly, peptide solutions in PBS (pH 7.5) at 0.4 to 2.0 mg/mL were fractionated over a Superdex peptide column (Amersham Pharmacia). The eluted peaks were monitored by static light scattering at 690 nm and solution molecular weight was determined at UV 280 nm using the Astra software package (Wyatt Inc.).

[2] = CD spectra secondary structure; format: physicochemical; conditions: 0.2 mg/mL peptide in PBS, 25° C.
Protocol: The secondary structures of tested peptides were determined using 0.2 mg/mL peptide solutions in PBS. Briefly, CD spectra were collected in triplicate at 1 nm intervals at 25° C. in 0.1 cm path length cell. Secondary structures were determined by fitting of the CD spectra using CD spectra software (CD Spectra Deconvolution software 2.1). All tested peptides contained peaks corresponding to the presence of alpha helices.

normal mice = assay: Upper gastrointestinal transit, carmine dye technique; format: in vivo; conditions: 50 μg/mouse daily s.c. for 10 days, 20-minute test period, vs PBS vehicle
Protocol: To test the effects of A2G-GLP-2 on upper gastrointestinal transit in normal mice, mice were randomly assigned to 2 groups (14 animals per test group). Each group received daily subcutaneous injection (total volume […]) of either A2G-GLP-2 peptide (50 μg/mouse) or the phosphate-buffered saline vehicle for 10 consecutive days.
On the day of study, upper gastrointestinal transit was measured using the carmine dye technique. Mice were fed a test meal of 0.25 ml of a 6% (w/v) solution of carmine cochineal powder mixed into 0.5% (w/v) methylcellulose administered intragastrically by an 18 gauge curved feeding tube. Following oral test meal administration, mice were replaced into their home cages. Twenty minutes after marker meal administration, mice were rapidly euthanized by cervical dislocation and the entire gastrointestinal tract was excised starting from the distal colon and working towards the gastric pylorus. […] The linear distance traversed by the carmine dye front through the small intestine was measured together with the total length of the small bowel. Upper gastrointestinal transit was expressed as the percentage of the entire small intestine traversed by the carmine dye front during the 20-minute test period; % small intestine traveled=[distance traversed by dye front through small intestine (cm)/entire small intestine length (cm)×100].

CD-1 mice = assay: Gastrointestinal transit in post-operative inflammatory ileus; format: in vivo; conditions: 2 mg/kg one hour before surgery, FITC-dextran 48 hr after operation, 45 minutes
Protocol: On the day of study, upper gastrointestinal transit was measured using the FITC-dextran method. This method provides both, a measure of gastrointestinal transit and a readout of the pattern of distribution of the test meal along the gastrointestinal tract. Mice were fed a test meal of […] of FITC-dextran solution (5 mg/ml of 70,000 molecular weight dextran conjugated to fluorescein-isothiocyanate in 0.5% methylcellulose/deionized water) administered intragastrically by an 18 gauge curved feeding tube. Following oral administration of the FITC-dextran test meal, mice were returned to their home cages. It was shown that a 30 min test period was the optimum duration for detecting accelerated transit, while a 45 min test period was optimum for detecting delayed transit. Following the appropriate test period, mice were sacrificed by carbon dioxide exposure. The entire gastrointestinal tract from the lower esophageal sphincter to the terminal colon was removed. […] Aliquots of the cleared supernatant were read in duplicate on a 96-well fluorescence plate reader to quantify the magnitude of the fluorescent signal in each segment of bowel. […] The GC is calculated in the lower panel for statistical comparison. […]
All mice received an oral test meal of FITC-dextran 48 hr after the operation. Gastrointestinal transit was determined 45 minutes after oral feeding. […]

mice = assay: Myeloperoxidase histochemistry of intestinal muscularis in post-operative inflammatory ileus; format: in vivo; conditions: 2 mg/kg one hour before surgery, tissue 48 hr after operation
Protocol: Myeloperoxidase histochemistry was performed on tissues harvested from the mid-small bowel of the mice 48 hr after the operation.
Briefly, segments of mid-small bowel were collected from the centrifuge tubes described in Example 12. Whole mounts of the muscle layer were prepared by pinning the tissue flat in a Sylgard® lined Petri dish and stretching the tissue to 2 times its length and 1.5 times its width. The mucosa was removed by fine dissection. The muscularis whole mounts were then fixed with 100% ethanol for 1 hr, washed 3 times with PBS, and incubated for 20 min in PBS containing 0.1% hydrogen peroxide and 1 mg/ml Hanker-Yates reagent. Following a second wash with PBS, the whole mounts were mounted on glass slides, cover-slipped, and viewed on an optical microscope. Myeloperoxidase containing leukocytes were counted in 6 to 8 adjacent 200× optical fields of view and the mean cell counts were calculated and recorded.

Row | SEC-SLS elution / association state of peptides [1] | Helix [2] [%] | Random coil [2] [%] | Molecule | increase in mucosal wet weight (CD1 mice) | upper gastrointestinal transit (normal mice; listed as A2G-GLP-2) | upper gastrointestinal transit (normal mice; listed as A2G-GLP-2 peptide) | gastrointestinal transit after abdominal surgery (CD-1 mice; listed as murine A2G GLP-2 mimetibody) | gastrointestinal transit after abdominal surgery (CD-1 mice; listed as murine A2G-GLP-2 mimetibody) | number of MPO-positive leukocytes infiltrating small intestinal muscle layer (mice)
1 | overlapping dimer and monomer peaks | 20.7 | 37.1 | CC[C@H](C)[C@H](NC(=O)[C@H](Cc1ccccc1)NC(=O)[C@H](CC(=O)O)NC(=O)[C@H](CCCNC(=N)N)NC(=O)[C@H](C)NC(=O)[C@H](C)NC(=O)[C@H](CC(C)C)NC(=O)[C@H](CC(N)=O)NC(=O)[C@H](CC(=O)O)NC(=O)[C@H](CC(C)C)NC(=O)[C@@H](NC(=O)[C@@H](NC(=O)[C@H](CC(N)=O)NC(=O)[C@H](CCSC)NC(=O)[C@H](CCC(=O)O)NC(=O)[C@H](CC(=O)O)NC(=O)[C@H](CO)NC(=O)[C@H](Cc1ccccc1)NC(=O)[C@H](CO)NC(=O)CNC(=O)[C@H](CC(=O)O)NC(=O)CNC(=O)[C@@H](N)Cc1c[nH]cn1)[C@@H](C)O)[C@@H](C)CC)C(=O)N[C@@H](CC(N)=O)C(=O)N[C@@H](Cc1c[nH]c2ccccc12)C(=O)N[C@@H](CC(C)C)C(=O)N[C@H](C(=O)N[C@@H](CCC(N)=O)C(=O)N[C@H](C(=O)N[C@@H](CCCCN)C(=O)N[C@H](C(=O)N[C@H](C(=O)N[C@@H](CC(=O)O)C(=O)O)[C@@H](C)O)[C@@H](C)CC)[C@@H](C)O)[C@@H](C)CC [SEQ ID NO: 3, GLP-2(A2G), reference compound] | statistically significant increase | acceleration of upper gastrointestinal transit | significant acceleration of intestinal transit | – | – | –
2 | – | – | – | SEQ ID NO: 80: human A2G-GLP2 peptide in murine IgG2a scaffold (protein, Human A2G-GLP2 peptide in murine IgG2a scaffold) HGDGSFSDEMNTILDNLAARDFINWLIQTKITDGSGGGSGTTVTVSAEPRGPTIKPCPPCKCPAPNAAGGPSVFIFPPKIKDVLMISLSPIVTCVVVDVSEDDPDVQISWFVNNVEVHTAQTQTHREDYNSTLRVVSALPIQHQDWMSGKEFKCKVNNKDLPAPIERTISKPKGSVRAPQVYVLPPPEEEMTKKQVTLTCMVTDFMPEDIYVEWTNNGKTELNYKNTEPVLDSDGSYFMYSKLRVEKKNWVERNSYSCSVVHEGLHNHHTTKSFSRTPGK | – | – | – | significant attenuation of the delay in gastrointestinal transit | significant improvement in transit | significantly reduced the number of infiltrating cells
